Reference: patent EP2535046A1 (priority 2011, dated 2012)

Columns and labels:
[1] = mouse, in vivo
[2] = system: STAT3, STAT3-P, ERK1/2, phosphorylated-ERK1/2 (Thr202/Tyr204); design: species or system mice; details: mouse, in vivo
[3] = system: thymocytes and splenocytes; design: species or system mice; details: mouse, in vivo
RABV [4] = system: RABV; design: species or system mice; details: mouse, in vivo
nNOS = system: nNOS; design: species or system mice; details: mouse, in vivo
RABV [5] = system: RABV; design: species or system mice; details: mouse, in vivo; remark: listed apart in the source
splenocytes subsets = system: splenocytes subsets; design: species or system mice; details: mouse, in vivo
[6] = system: IL-6, CXCL10, IFN-γ and TNFα; design: species or system mice; details: mouse, in vivo
RABV CVS-NIV = system: RABV CVS-NIV; design: species or system C57BL/6J mice; details: mouse, in vivo
Fkbp51 = system: Fkbp51; design: species or system mice; details: mouse, in vivo

CNC1(C)C2CCC(C2)C1(C)C (stereo not drawn) [mecamylamine, N,2,3,3-Tetramethylbicyclo[2.2.1] heptan-2 amine]
side effects such as weight loss or behavior modification [1]: does not induced obvious side effects | expression and phosphorylation of STAT3 and ERK1/2 in the brain [2]: reduces expression and phosphorylation of STAT3 and ERK1/2 to levels similar to those observed in the non-infected brain | number of splenocytes [3]: increased the number of splenocytes | cellularity of the spleen (number of splenocytes) ([3]; ip, 2 mg/kg): protects cellularity of the spleen | number of thymocytes (RABV-mediated drop) ([3]; ip, 2 mg/kg): no effect on the drop of thymocytes | RABV N protein transcripts among survivors (RABV [4]): less viral transcripts than the mock-treated animals | nNOS transcription in the brain (nNOS): block the nNOS decrease | effect on RABV specific neutralizing antibodies (RABV [5]): no effect | main subsets of spleen cells (TCRαβ, CMH class II, CD4, CD8, plasmocytes expressing IgG) (splenocytes subsets): prevents the RABV-mediated disappearance | numbers of CD4 T cells expressing CD25 and numbers of CD3 expressing CD69 (splenocytes subsets): restored | IFN-γ and TNFα transcription in the spinal cord [6]: slowed-down | IL6 or CXCL10 kinetic in the spinal cord [6]: no effect | cytokines expression at transcriptional level (IL-6, CXCL10, IFN-γ, TNFα) in the brain [6]: did not modify significantly | inflammatory cytokines expression in the liver [6]: No difference | RABV pathogenesis (RABV CVS-NIV): did not modify RABV pathogenesis | clinical scores (RABV CVS-NIV): decreases the severity of the clinical scores | weight loss (RABV CVS-NIV): interrupted the weight loss | transcription of the glucocorticoid-inducible gene Fkbp51 (Fkbp51): no effect
